Experimental data reported in patent US20030018008A1, “Formulations of adenosine a1 agonists” (priority 1999, published 2003).

Tested on: carrageenan-induced oedema and allodynia
Assay: Carrageenan model: weight bearing (allodynia) and paw oedema of the inflamed hind paw
Assay type: in vivo, rat
Conditions: for % Weight on inflammed paw (Allodynia): 3 h after intraplantar 2% carrageenan, 50% = no pain; for % Inhibition of carrageenan-induced allodynia / % Inhibition of carrageenan-induced oedema: compared to vehicle control; for % Inhibition of carrageenan-induced oedema: plethysmometer
Description: Carrageenan model for (2S, 3S, 4R, 5R)-2-(5 tert-butyl-[1,3,4]oxadiazol-2-yl)-5-[6-(4-chloro-2-fluoro-phenylamino)-purin-9-yl]-tetrahvdro-furan-3,4-diol (Adenosine A1 agonist) and alosetron.
Male Random Hooded rats (180-220 g) were used. The test compound or vehicle was administered 30 mins before the 2nd test compound or vehicle. The test compounds and vehicles used were: (i) Compound A in 1% DMSO, 66% Peg400, 33% distilled water and (ii) alosetron in saline. Both test compounds were administered via the oral route. After a further 30 mins 100 ul of 2% carrageenan was injected intraplantar into the left hind paw and the animals were then returned to their cages. Three hours later, behavioural testing of the carrageenan-induced decrease in weight on the inflamed left hind paw (% weight on the inflammed left hind paw) and associated oedema was assessed. Weight bearing was measured using the dual channel weight averager and paw oedema was assessed using a plethysmometer. The dual channel weight averager is commercially available and is described in the following abstract: Validation of the dual channel weight averager as an instrument for the measurement of inflammatory pain, N. M. Clayton et al., 1997 British Journal Pharmacol. 120, 219P.
Note: In the absense of pain, weight on the hind paws would be evenly distributed, i.e. 50% on each hind paw.
Note: Oedema is the presence of abnormally large amounts of fluid in the intercellular tissue spaces of the body and in the present example is used to provide a measure of inflammation (or anti-oedemic). Allodynia is a sensation of pain resulting from a non-injurious stimulus such as normal heat, cold or pressure on skin and in the present example the weight-bearing (allodynia) effect in used to provide a measure of analgesia.

| Structure (SMILES) | % Weight on inflammed paw (Allodynia) (Compound A 0.4 mg/kg oral) [%] | % Inhibition of carrageenan-induced allodynia (Compound A 0.4 mg/kg oral) [%] | % Inhibition of carrageenan-induced oedema (Compound A 0.4 mg/kg oral) [%] | % Weight on inflammed paw (Allodynia) (Alosetron 0.3 mg/kg oral) [%] | % Inhibition of carrageenan-induced allodynia (Alosetron 0.3 mg/kg oral) [%] | % Inhibition of carrageenan-induced oedema (Alosetron 0.3 mg/kg oral) [%] |
| --- | --- | --- | --- | --- | --- | --- |
| CC(C)(C)c1nnc([C@H]2O[C@@H](n3cnc4c(Nc5ccc(Cl)cc5F)ncnc43)[C@H](O)[C@@H]2O)o1 [Compound A, (2S, 3S, 4R, 5R)-2-(5 tert-butyl-[1,3,4]oxadiazol-2-yl)-5-[6-(4-chloro-2-fluoro-phenylamino)-purin-9-yl]-tetrahydro-furan-3,4-diol] | 20.7 ± 4.3 | 2.1 ± 14.3 | −3.1 ± 8.2 | – | – | – |
| Cc1[nH]cnc1CN1CCc2c(c3ccccc3n2C)C1=O [Alosetron, 2,3,4,5-tetrahydro-5-methyl-2-[(5-methyl-1H-imidazol-4-yl)methyl]-1H-pyrido[4,3-b]indol-1-one] | – | – | – | 33.6 ± 5.5 | 45.1 ± 18.4 | 28.2 ± 6.3 |
